Measurements reported in the NIST ThermoML archive (doi:10.1021/je300853z).

How the values were obtained:
[1] = for mass density / viscosity: 101.33 kPa, Liquid; for mass density: Vibrating tube method
[2] = molar heat capacity at constant pressure; conditions: 101.33 kPa, Liquid, Small sample (50 mg) DSC

CCCCCCCC[n+]1ccc2ccccc2c1.N#C[S-] [2-octylisoquinolinium thiocyanate]
Conditions | mass density, [1] [kg/m3] | molar heat capacity at constant pressure, [2] [J/K/mol] | viscosity, [1] [mPa·s]
278.15 K | – | 510 | –
283.15 K | – | 513 | –
288.15 K | 1067.27 | 516 | –
293.15 K | 1064.44 | 519 | –
298.15 K | 1061.69 | 522 | 2388
303.15 K | 1058.82 | 525 | 1612.1
308.15 K | 1055.96 | 528 | 1109.5
313.15 K | 1053.11 | 531 | 743.87
318.15 K | 1050.26 | 533 | 513.78
323.15 K | 1047.42 | 535 | 365.48
328.15 K | 1044.57 | 537 | 266.77
333.15 K | 1041.72 | 538 | 199.26
338.15 K | 1038.94 | 540 | 152.21
343.15 K | 1036.2 | 540 | 118.51
348.15 K | 1033.47 | – | 93.83

Conditions | Glass transition temperature [°C]
[1], Glass, DTA | -57.0
